{"source": "paper PMC10541198", "about": "“Specific quinone reductase 2 inhibitors reduce metabolic burden and reverse Alzheimer’s disease phenotype in mice” (The Journal of Clinical Investigation, 2023)", "key": {"C57BL/6 mice": {"system": "C57BL/6 mice", "assay": "Delay fear conditioning, microinjection to hippocampal CA1", "type": "in vivo, mouse", "protocol": "In order to evaluate the efficacy of some of the leading QR2is in vivo, we carried out double-blind experiments using 2 different modalities (Supplemental Methods), measuring memory that is dependent on different brain areas. First, cortical memory was tested using incidental novel taste learning (see Methods), in which an unfamiliar, but palatable and safe, taste is given for the first time, and the memory for this newly learned taste is then assessed 2 days later. This is done by measuring the volume of the taste consumed upon subsequent exposure to it ([32]) (Figure 4A). […] Next, hippocampal-dependent learning was evaluated using delay fear conditioning (DFC; see Methods) ([33]). Mice were cannulated to the CA1 region of the hippocampus and were microinjected with YB-537 (1 μL of 5 μM, Figure 4, D and H) or vehicle. […] In order to evaluate any possible effect of acute QR2i microinjection on metabolic stress in the mouse brain, ISR activation was measured by quantifying total and phosphorylated eukaryotic initiation factor 2 α (eIF2α) levels (Supplemental Figure 3A) and lipid peroxidation product, 4-hydroxynonenal (4-HNE; Supplemental Figure 3B), by immunoblot 3 hours after the injection.\nDFC was done as previously described ([7]). Briefly, mice were given 2 minutes to explore the conditioning chambers, during which baseline freezing was measured. Then, a 20 second, 4 kHz, 80 dB tone was given, coterminating with the start of a 2 second, 0.5 mA foot-shock. This was repeated twice more in 1 minute intervals. Following the third and last bout, 1 minute was given before the animals were removed from the chambers. The next day, the animals were returned to the room under the same conditions and were placed back into the chambers, and freezing to the context was measured over the course of 5 minutes. The next day, the mice were brought to unfamiliar conditioning rooms and chambers. In this unfamiliar context, the protocol from the first day was repeated, except without the foot shocks. Freezing for the cue was recorded, starting from the sounding of the first tone. All measurements were taken with a Sentec stc-tb33usb-at camera, and analysis was done with Freeze Frame software (Actimetrics). […]\nMice were anesthetized under 2% isoflurane, using an induction box (HME109, Highland Medical Equipment). They were placed in a stereotaxic device (Kopf Stereotaxic Alignment System, model 1900) under continuous 1% isoflurane anesthesia. Guide cannulas were implanted bilaterally to CA1 (from bregma: −1.9 mm AP, ±1.4 mm, −1.6 mm DV), cemented to the skull and fitted with 28- gauge dummy cannulas e xt e ndi ng 0.2 mm beyond the tip of the 1.2 mm guide cannulas. The mice were allowed at least 7 days of r ecover y before e xpe r im e nt at ion. The QR2 inhibitor YB-537 was dissolved in saline (0.9%). A total of 1μL of 5μM of YB-537 or vehicle was infused bilaterally to CA1, via a 28- gauge infusion cannula projecting 0.4 mm (drug delivery depth bregma: […]) beyond the guide cannula, connected by polyethylene tubing to a 10μL s yr i nge (Hamilton) ove r the course of 1m i n. The injection cannula was […]\nkept for 60s inside the guide cannula in order prevent osmotic seepage of the doses upward through the cannula tract. Twenty minutes following the injection, animals underwent delay fear conditioning.\nFollowing experimentation, animals were killed, brains were sliced in coronal sections, and cannula implantation was validated by imaging.\nIncidental Tast e Learning […]\nneophobia is highly conserved across species, as it is the fi rst line of defense against potentially poisonous, newly discovered foodstuffs.\nHowever, once a memory for the taste is formed and no associated ill effect is learned, the taste becomes familiar and the animal consumes it more freely, especially if it is a pleasant, palatable taste. Thus, the stronger the memory for the safe, palatable taste, the more likely the animal will consume it(32, 56). […]"}, "5xFAD mice": {"system": "5xFAD mice", "assay": "General wellbeing / adverse effects during 1 month ingestion", "type": "in vivo, mouse", "conditions": "8-to-9-month-old 5xFAD, both sexes, 50 mg/kg in drinking water, month-long", "protocol": "We next aimed to test the effect of QR2 inhibition in AD model mice using YB-537, taking advantage of its extremely high specificity, solubility, and lack of toxicity. First, we determined YB-537 pharmacokinetics (PK) and oral bioavailability and assessed any acute observable toxicity in mice. […] We therefore opted to chronically deliver YB-537 to AD-model mice via their drinking water, so they may freely ingest the inhibitor at 50 mg/kg, with minimal intervention or trauma, for 1 month. We chose 9-month-old 5xFAD ([27]) male and female mice in double-blind experiments, so that well-progressed symptoms and pathologies would be present, to mimic clinically relevant cases in human patients ([35]), as has been previously described in this mouse model. Other than an improvement in nest quality ([36]) over time seen in animals receiving YB-537 (starting at age 8 months and ending at age 9 months), no changes to general physical parameters or wellbeing were observed over the 1 month of YB-537 ingestion (Supplemental Figure 6, A–J). […] Since learning in this paradigm was slow, and performance was poor even following 6 days of training (using 4 learning trials a day), a test day was not carried out and instead only the learning rate was measured. […]"}, "[1]": {"conditions": "5 μM to CA1, in % (unit assumed)"}}, "note": "Where “and” joins values, the source holds several entries; their conditions need not be identical. Equal values may be shown once."}
{"compound": "Cc1ccc(-c2cn3cccc(C)c3n2)cc1S(=O)(=O)N1CCNCC1", "note": "[YB-537]", "values": [{"measurement": "inter-trial learning during conditioning", "setting": "C57BL/6 mice; 5 μM to CA1, n=6", "value": "normal inter-trial learning"}, {"measurement": "freezing during conditioning (individual mice)", "setting": "C57BL/6 mice; 5 μM to CA1, Baseline, in % (unit assumed)", "value": "2.45 and 0.22 and 3.23 and 4.78 and 9.01 and 1.89"}, {"measurement": "freezing during conditioning (individual mice)", "setting": "C57BL/6 mice; 5 μM to CA1, CS/US 1, in % (unit assumed)", "value": "13.08 and 8.81 and 18.16 and 10.01 and 26.70 and 2.54"}, {"measurement": "freezing during conditioning (individual mice)", "setting": "C57BL/6 mice; 5 μM to CA1, CS/US 2, in % (unit assumed)", "value": "20.03 and 15.78 and 28.12 and 17.97 and 27.02 and 2.19"}, {"measurement": "freezing during conditioning (individual mice)", "setting": "C57BL/6 mice; 5 μM to CA1, CS/US 3, in % (unit assumed)", "value": "24.88 and 20.00 and 35.58 and 21.40 and 33.02 and 2.33"}, {"measurement": "freezing in response to the context (individual mice)", "setting": "C57BL/6 mice; [1]", "value": "59.92 and 49.69 and 57.37 and 25.70 and 41.84 and 33.92"}, {"measurement": "freezing in response to the cue (individual mice)", "setting": "C57BL/6 mice; [1]", "value": "51.89 and 48.39 and 35.02 and 23.60 and 5.68 and 24.28"}, {"measurement": "adverse effects of chronic ingestion", "setting": "5xFAD mice", "value": "no adverse effects were seen"}]}
